# Laboratory results: PMC2929395 (Chemistry & biology, 2010)
# Entries after “also recorded” stand apart in the source; their conditions may differ. Where a name gives a salt, the structure may show the parent alone.
# Key:
# PanK3 [1] = molecular target: T1, PanK3 (Homo sapiens, UniProt Q9H999); assay: PanK3 high-throughput screen, two-step luminescence; format: biochemical
# PanK3 [2] = molecular target: T1, PanK3; assay: PanK3 radiochemical; format: biochemical; details: for % Activation RA: % of maximal activation of PanK3 with respect to the DMSO control; for % Activation RA / PanK3 inhibition (in words): radioactive assay; for EC50 (µM), RA: radiochemical PanK3 assay; for Km: read-out: KM for PanK3, wild-type PanK3, substrate; for PanK3 inhibition by steroids: radiochemical assay, 100 µM compound; for PanK3 inhibition (in words): increasing concentrations of compound; for Reversal of / competition with acetyl-CoA inhibition of PanK3: in the presence of acetyl-CoA, data not shown
# PanK3(S195V) = molecular target: T2, PanK3(S195V) (Homo sapiens, UniProt Q9H999, S195V); assay: PanK3; format: biochemical; details: for Km: read-out: KM for PanK3(S195V), substrate; for Inhibition of PanK3(S195V): radioactive assay, 800 ng PanK3(S195V)
# T2 sequence (Q9H999 1-370 S195V): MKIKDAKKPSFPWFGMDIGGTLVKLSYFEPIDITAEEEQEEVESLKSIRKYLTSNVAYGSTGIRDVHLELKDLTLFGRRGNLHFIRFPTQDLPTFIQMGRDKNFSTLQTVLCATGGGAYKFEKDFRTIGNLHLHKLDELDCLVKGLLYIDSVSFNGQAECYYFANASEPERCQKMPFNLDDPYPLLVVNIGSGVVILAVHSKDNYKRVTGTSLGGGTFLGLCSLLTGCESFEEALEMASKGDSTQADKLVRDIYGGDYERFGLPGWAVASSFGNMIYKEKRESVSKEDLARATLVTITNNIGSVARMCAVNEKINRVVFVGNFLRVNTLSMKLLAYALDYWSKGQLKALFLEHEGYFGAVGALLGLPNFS
# S. aureus PanK (SaPanK) = S. aureus PanK (SaPanK) (Staphylococcus aureus, UniProt Q2FWC7); assay: SaPanK radiochemical assay; format: biochemical; details: radioactive assay, 10 ng SaPanK
# PanK2 = molecular target: T3, PanK2 (Homo sapiens, UniProt Q9BZ23); assay: Isoform selectivity, purified PanK2; format: biochemical; details: compared to PanK3
# T3 sequence (Q9BZ23 141-570 limits assumed): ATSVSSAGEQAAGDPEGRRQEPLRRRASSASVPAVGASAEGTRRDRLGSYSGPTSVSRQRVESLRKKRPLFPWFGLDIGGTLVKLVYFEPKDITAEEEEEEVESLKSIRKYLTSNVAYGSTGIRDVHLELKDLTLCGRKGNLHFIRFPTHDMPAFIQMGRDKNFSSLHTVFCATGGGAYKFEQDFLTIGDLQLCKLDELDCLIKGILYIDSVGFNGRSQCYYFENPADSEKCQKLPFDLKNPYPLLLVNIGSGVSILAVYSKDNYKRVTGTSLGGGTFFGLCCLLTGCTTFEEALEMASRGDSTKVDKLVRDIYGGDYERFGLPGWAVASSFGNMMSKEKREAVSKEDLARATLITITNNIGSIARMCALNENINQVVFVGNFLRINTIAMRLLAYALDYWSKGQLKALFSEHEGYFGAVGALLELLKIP
# HepG2/C3A cells = assay: CoA biosynthesis, [3H]pantothenate incorporation into CoA in HepG2/C3A cells; format: cell-based, human; details: 24 h labeling, relative to DMSO control
# PanK1β = molecular target: T4, PanK1β (Homo sapiens, UniProt Q8TE04); assay: Isoform selectivity, purified PanK1β; format: biochemical; details: compared to PanK3
# T4 sequence (Q8TE04 1-373 isoform Q8TE04-2): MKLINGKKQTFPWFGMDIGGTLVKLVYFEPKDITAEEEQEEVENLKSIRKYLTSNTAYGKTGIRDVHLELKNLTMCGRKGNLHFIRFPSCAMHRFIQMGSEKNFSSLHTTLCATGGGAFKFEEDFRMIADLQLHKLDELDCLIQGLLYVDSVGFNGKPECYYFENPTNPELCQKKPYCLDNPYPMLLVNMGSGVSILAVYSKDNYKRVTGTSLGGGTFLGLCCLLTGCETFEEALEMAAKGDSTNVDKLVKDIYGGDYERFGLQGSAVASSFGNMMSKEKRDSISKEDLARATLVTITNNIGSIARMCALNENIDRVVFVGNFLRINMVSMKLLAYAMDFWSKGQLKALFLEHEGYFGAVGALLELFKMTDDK
# [3] = HTS platform, 10-point concentration series in triplicate, rounded to nearest 0.1 µM
# T1 sequence (Q9H999 whole entry): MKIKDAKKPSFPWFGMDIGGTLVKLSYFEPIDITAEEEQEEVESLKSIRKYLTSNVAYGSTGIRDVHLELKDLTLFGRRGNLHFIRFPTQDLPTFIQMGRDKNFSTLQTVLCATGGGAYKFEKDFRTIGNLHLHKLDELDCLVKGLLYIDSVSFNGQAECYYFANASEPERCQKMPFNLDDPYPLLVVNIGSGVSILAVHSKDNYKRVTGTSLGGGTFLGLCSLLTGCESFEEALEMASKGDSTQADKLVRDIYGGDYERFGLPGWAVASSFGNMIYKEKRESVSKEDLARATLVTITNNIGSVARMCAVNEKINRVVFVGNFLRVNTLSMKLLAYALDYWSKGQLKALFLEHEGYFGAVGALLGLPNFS
# Sequence of S. aureus PanK (SaPanK) (Q2FWC7 whole entry, canonical isoform): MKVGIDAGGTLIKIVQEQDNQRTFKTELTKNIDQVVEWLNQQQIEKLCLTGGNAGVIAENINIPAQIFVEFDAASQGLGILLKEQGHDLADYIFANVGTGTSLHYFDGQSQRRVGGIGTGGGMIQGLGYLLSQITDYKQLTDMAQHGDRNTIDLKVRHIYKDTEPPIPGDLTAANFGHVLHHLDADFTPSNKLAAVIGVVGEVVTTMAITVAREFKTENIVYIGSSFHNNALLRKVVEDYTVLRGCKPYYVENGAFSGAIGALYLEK
molecule,measurement,setting,value
"N=C(N)SCCc1ccc(CCSC(=N)N)cc1 [1,4-PBIT dihydrobromide]",IC50,PanK3 [1]; [3],0.4 µM
"O=C1C=CC(=O)c2ccccc21 [1,4-naphtoquinone]",% Activation RA,PanK3 [2],0%
same,"EC50 (µM), RA",PanK3 [2],Inactive
CC1(C)[C@@H](O)CC[C@]2(C)[C@H]3C(=O)C=C4[C@H]5C[C@@](C)(C(=O)O)CC[C@]5(C)CC[C@@]4(C)[C@]3(C)CC[C@@H]12 [18α-glycyrrhetinic acid],IC50,PanK3 [1],3.6 µM
Nc1ncnc2c1ncn2[C@@H]1O[C@H](COP(=O)(O)OP(=O)(O)O)[C@@H](O)[C@H]1O [ADP],Kinetic mechanism of PanK3 inhibition with respect to ATP,PanK3 [2],competitive inhibitor
Nc1ncnc2c1ncn2[C@@H]1O[C@H](COP(=O)(O)OP(=O)(O)OP(=O)(O)O)[C@@H](O)[C@H]1O [ATP],Km,PanK3 [2],311 ± 53 µM
same,Km,PanK3(S195V),191 ± 27 µM
O=C1C(Cl)=C(Cl)C(=O)C(Cl)=C1Cl [Chloranil],IC50,PanK3 [1],5.9 µM
C[C@]12CC[C@H](OS(=O)(=O)O)CC1=CC[C@@H]1[C@@H]2CC[C@]2(C)C(=O)CC[C@@H]12 [Dehydroisoandrosterone sulfate],PanK3 inhibition by steroids,PanK3 [2],inhibited the enzyme more potently than their non-sulfated versions
C[C@]12CC[C@H](O)CC1=CC[C@@H]1[C@@H]2CC[C@]2(C)C(=O)CC[C@@H]12 [Dehydroisoandrosterone],PanK3 inhibition by steroids,PanK3 [2],decreased the enzyme activity
CN[C@@H](C)[C@H](O)c1ccccc1 [Ephedrine hydrochloride],IC50,PanK3 [1],1.6 µM
CC(=O)O[C@H]1C[C@@]2(C)[C@@H](C[C@@H](O)[C@H]3[C@@]4(C)CC[C@@H](O)[C@@H](C)[C@@H]4CC[C@@]32C)/C1=C(\CCC=C(C)C)C(=O)O [Fusidic acid],IC50,PanK3 [1],0.1 µM
CN(CCOc1ccc(C[C@H](Nc2ccccc2C(=O)c2ccccc2)C(=O)O)cc1)c1ccccn1 [GW1929],PanK3 inhibition (in words),PanK3 [2],either had no effect or very weak activity
O=C1Nc2ccc(I)cc2/C1=C/c1cc(Br)c(O)c(Br)c1 [GW5074],IC50,PanK3 [1]; [3],9.2 µM
O=C(Nc1ccccc1)c1cc([N+](=O)[O-])ccc1Cl [GW9662],PanK3 inhibition (in words),PanK3 [2],either had no effect or very weak activity
Cc1cc(SCc2sc(-c3ccc(C(F)(F)F)cc3)nc2C)ccc1OCC(=O)O [GW501516],IC50,PanK3 [2],~100 µM
Cc1cnc(C(=O)NCCc2ccc(S(=O)(=O)NC(=O)NC3CCCCC3)cc2)cn1 [Glipizide],IC50,PanK3 [2],8.5 µM
same,IC50,PanK3 [1],5.2 µM
COc1ccc(Cl)cc1C(=O)NCCc1ccc(S(=O)(=O)NC(=O)NC2CCCCC2)cc1 [Glyburide],Inhibition of SaPanK,S. aureus PanK (SaPanK),refractory; also recorded: not inhibited
same,IC50,PanK3 [2],8.5 µM
same,Kinetic mechanism of PanK3 inhibition with respect to ATP,PanK3 [2],uncompetitive
same,IC50,PanK3 [1],6.8 µM
same,Effect on PanK2 activity,PanK2,less sensitive to glyburide than PanK3
same,Effect on CoA biosynthesis (pantothenate incorporation into CoA),HepG2/C3A cells,inhibited cellular CoA biosynthesis to a lesser extent than MCC-555
same,Inhibition of PanK3(S195V),PanK3(S195V),refractory to inhibition
same,Effect on PanK1β activity,PanK1β,activated rather than inhibited
Oc1c(Cl)cc(Cl)c(Cl)c1Cc1c(O)c(Cl)cc(Cl)c1Cl [Hexachlorophene],IC50,PanK3 [1],8.8 µM
O=C1NC(=O)C(Cc2ccc3cc(OCc4ccccc4F)ccc3c2)S1 (stereo not drawn) [MCC-555],Inhibition of SaPanK,S. aureus PanK (SaPanK),refractory; also recorded: not inhibited
same,Kinetic mechanism of PanK3 inhibition with respect to ATP,PanK3 [2],uncompetitive
same,Effect on PanK2 activity,PanK2,inhibited
same,Effect on CoA biosynthesis (pantothenate incorporation into CoA),HepG2/C3A cells,inhibited pantothenate incorporation into CoA
same,Inhibition of PanK3(S195V),PanK3(S195V),refractory to inhibition
same,Effect on PanK1β activity,PanK1β,inhibited
CCCCCCCC/C=C\CCCCCCCC(=O)O[C@H](CC(=O)[O-])C[N+](C)(C)C [Oleoyl-carnitine],% Activation RA,PanK3 [2],140%
same,Reversal of / competition with acetyl-CoA inhibition of PanK3,PanK3 [2],Competition between acetyl-CoA and oleoyl-carnitine was also observed
same,Effect on CoA biosynthesis (pantothenate incorporation into CoA),HepG2/C3A cells,activators of CoA biosynthesis
CCCCCCCC/C=C\CCCCCCCC(=O)NCCO [Oleoylethanolamide],EC50,PanK3 [2],0.5 µM
same,% Activation RA,PanK3 [2],120%
same,EC50,PanK3 [1],7.9 µM
CCCCCCCCCCCCCCCC(=O)OC(CC(=O)[O-])C[N+](C)(C)C (stereo not drawn) [Palmitoyl-carnitine],EC50,PanK3 [2],1.6 µM
same,% Activation RA,PanK3 [2],120%
CCc1ccc(CCOc2ccc(CC3SC(=O)NC3=O)cc2)nc1 (stereo not drawn) [Pioglitazone hydrochloride],IC50,PanK3 [1],1 µM
CC(=O)[C@H]1CC[C@H]2[C@@H]3CC=C4C[C@@H](O)CC[C@]4(C)[C@H]3CC[C@]12C [Pregnenolone],PanK3 inhibition by steroids,PanK3 [2],weak PanK3 inhibitors
O=C(c1cc(O)c(O)c([N+](=O)[O-])c1)c1ccccc1F [Ro 41-0960],IC50,PanK3 [1]; [3],3.9 µM
CN(CCOc1ccc(CC2SC(=O)NC2=O)cc1)c1ccccn1 (stereo not drawn) [Rosiglitazone],Effect on CoA biosynthesis (pantothenate incorporation into CoA),HepG2/C3A cells,inhibited pantothenate incorporation into CoA
CC/C(=C(\c1ccccc1)c1ccc(OCCN(C)C)cc1)c1ccccc1 [Tamoxifen],EC50,PanK3 [2],4 µM
same,% Activation RA,PanK3 [2],140%
same,Reversal of / competition with acetyl-CoA inhibition of PanK3,PanK3 [2],reversed the inhibition of PanK3 by acetyl-CoA
same,EC50,PanK3 [1],3.4 µM
same,Effect on PanK2 activity,PanK2,not affected
same,Effect on CoA biosynthesis (pantothenate incorporation into CoA),HepG2/C3A cells,most potent activator of CoA biosynthesis in cells
same,Effect on PanK1β activity,PanK1β,inhibited
CCCCNC(=O)NS(=O)(=O)c1ccc(C)cc1 [Tolbutamide],PanK3 inhibition (in words),PanK3 [2],ineffective
Cc1c(Cl)cccc1Nc1ccccc1C(=O)O [Tolfenamic acid],IC50,PanK3 [1],9.2 µM
N#C/C(=C\c1ccc(O)c(O)c1)C(=O)N1CCc2ccccc21 [Tyrphostin AG 528],IC50,PanK3 [1]; [3],3 µM
C#C[C@]1(O)CC[C@H]2[C@@H]3CCC4=Cc5nc6nc7ccccc7n6cc5C[C@]4(C)[C@H]3CC[C@@]21C [WIN 62577],IC50,PanK3 [1]; [3],0.7 µM
CC(=O)SCCNC(=O)CCNC(=O)[C@H](O)C(C)(C)COP(=O)(O)OP(=O)(O)OC[C@H]1O[C@@H](n2cnc3c(N)ncnc32)[C@H](O)[C@@H]1OP(=O)(O)O [acetyl-CoA],Inhibition of PanK3(S195V),PanK3(S195V),refractory to inhibition
CC(C)CCC[C@@H](C)[C@H]1CC[C@H]2[C@@H]3CC=C4C[C@@H](O)CC[C@]4(C)[C@H]3CC[C@]12C [cholesterol],PanK3 inhibition by steroids,PanK3 [2],weak PanK3 inhibitors
C[C@]12CC[C@@H]3c4ccc(OS(=O)(=O)O)cc4CC[C@H]3[C@@H]1CC[C@@H]2O [estradiol sulfate],PanK3 inhibition by steroids,PanK3 [2],no effect
C[C@]12CC[C@@H]3c4ccc(OS(=O)(=O)O)cc4CC[C@H]3[C@@H]1CCC2=O [estrone sulfate],PanK3 inhibition by steroids,PanK3 [2],inhibited the enzyme more potently than their non-sulfated versions
NS(=O)(=O)c1cc(C(=O)O)c(NCc2ccco2)cc1Cl [furosemide],Activator hit in primary HTS,"PanK3 [1]; screened at 12 µM, cut-off >25% activation",did not make the cutoff for an activator of PanK3
CC(C)[C@H]1CC[C@H](C(=O)N[C@H](Cc2ccccc2)C(=O)O)CC1 [nateglinide],IC50,PanK3 [2],> 100 µM
CC(C)(CO)[C@@H](O)C(=O)NCCC(=O)NCCS [pantetheine],Km,PanK3 [2],23 ± 2 µM
same,Km,PanK3(S195V),59 ± 3 µM
CCOc1cc(CC(=O)N[C@@H](CC(C)C)c2ccccc2N2CCCCC2)ccc1C(=O)O [repaglinade],IC50,PanK3 [2],> 100 µM
Phenylmercuric acid,% Activation RA,PanK3 [2],0%
same,"EC50 (µM), RA",PanK3 [2],Inactive
Psi-Rhodomyrtoxin,IC50,PanK3 [1]; [3],1.6 µM
Tyrphostin AG 808,IC50,PanK3 [1]; [3],9 µM
